# Experimental data taken from ChEMBL document CHEMBL1126805, “Synthesis and evaluation of a series of benzylaniline hydrochlorides as potential cytotoxic and antimitotic agents acting by inhibition of tubulin polymerization” (J Med Chem, 1993).
# Experiments:
# [1] = test system: DMS-273; test: Tested for cytotoxicity against DMS 273 (small-cell lung cancer) cell line.; format: functional, Homo sapiens
# [2] = target: Tubulin (Bos taurus, UniProt Q6B856+Q862F3); test: In vitro inhibition of bovine electrophoretically homogeneous tubulin polymerization.; format: functional
# Sequence of Tubulin (Q6B856 whole entry): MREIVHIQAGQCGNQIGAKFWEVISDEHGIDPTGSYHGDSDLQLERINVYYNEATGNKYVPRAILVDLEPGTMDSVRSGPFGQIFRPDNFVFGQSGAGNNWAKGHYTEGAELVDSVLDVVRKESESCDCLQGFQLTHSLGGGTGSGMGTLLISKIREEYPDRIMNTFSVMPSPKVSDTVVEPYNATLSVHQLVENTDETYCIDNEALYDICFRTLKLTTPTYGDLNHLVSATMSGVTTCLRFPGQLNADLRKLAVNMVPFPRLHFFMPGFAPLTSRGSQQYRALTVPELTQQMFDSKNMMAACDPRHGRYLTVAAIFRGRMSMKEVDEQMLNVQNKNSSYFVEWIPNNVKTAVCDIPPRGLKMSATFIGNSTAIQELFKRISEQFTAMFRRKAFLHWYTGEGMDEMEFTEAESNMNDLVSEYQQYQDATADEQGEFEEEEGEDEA
# Sequence of Tubulin (Q862F3 whole entry): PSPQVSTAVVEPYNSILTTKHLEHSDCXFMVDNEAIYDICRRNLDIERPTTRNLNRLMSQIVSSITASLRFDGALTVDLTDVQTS
# [3] = test system: HL-60; test: Tested for cytotoxicity against human cancer cell lines HL-60(TB) (leukemia) cell line.; format: functional
# [4] = test system: COLO 205; test: Tested for cytotoxicity against COLO 205 (colon cancer) cell line.; format: functional, Homo sapiens
# [5] = test system: NCI-H522; test: Tested for cytotoxicity against NCI-H522 (non-small-cell lung cancer) cell line.; format: functional, Homo sapiens
# [6] = test system: OVCAR-3; test: Tested for cytotoxicity against OVCAR-3 (ovarian cancer) cell line.; format: functional, Homo sapiens
# [7] = test system: M14; test: Tested for cytotoxicity against M14 melanoma; format: functional, Homo sapiens
# [8] = test system: CAKI-1; test: Tested for cytotoxicity against CAKI-1 renal cancer; format: functional, Homo sapiens
# [9] = test system: SF-295; test: In vitro cytotoxicity against SF-295 (CNS cancer) cell line.; format: functional, Homo sapiens
SMILES,GI50 [1] [nM],IC50 [2] [nM],"GI50 ([3]; Homo sapiens, HL-60) [nM]","GI50 ([4]; Homo sapiens, COLO 205) [nM]","GI50 ([5]; Homo sapiens, NCI-H522) [nM]","GI50 ([6]; Homo sapiens, OVCAR-3) [nM]","GI50 ([7]; Homo sapiens, M14) [nM]","GI50 ([8]; Homo sapiens, CAKI-1) [nM]","GI50 ([9]; Homo sapiens, SF-295) [nM]",GI50 [3] [nM],GI50 [4] [nM],GI50 [5] [nM],GI50 [6] [nM],GI50 [7] [nM],GI50 [8] [nM],GI50 [9] [nM],"GI50 ([1]; Homo sapiens, DMS-273) [nM]"
CCc1ccc(NCc2cc(OC)c(OC)c(OC)c2)cc1,135,3000,168,344,234,283,315,354,266,–,–,–,–,–,–,–,–
COc1cc(CNc2ccc(SC)cc2)cc(OC)c1OC,4910,16000,–,–,–,–,–,–,–,3290,3600,2950,4850,4840,16300,3410,–
COc1ccc(NCc2cc(OC)c(OC)c(OC)c2)cc1,534,8900,–,–,–,–,2380,–,–,834,1660,2760,1960,–,2500,2320,–
COc1cc(/C=N/c2ccc(C(C)C)cc2)cc(OC)c1OC,–,> 40000,> 100000,> 100000,> 100000,> 100000,> 100000,> 100000,> 100000,–,–,–,–,–,–,–,52500
